# ChEMBL document CHEMBL4680149, “Biological evaluation and chemoproteomics reveal potential antibacterial targets of a cajaninstilbene-acid analogue” (Eur J Med Chem, 2020)
# Calls of active or inactive are those of the source. No cut-off for these calls is given here.
# Assays:
# Cell membrane [1] = assay: Induction of cell membrane disruption in methicillin resistant Staphylococcus aureus ATCC 43300 assessed as loose cell wall at 4 ug/ml incubated for 1 hr by transmission electron microscopic analysis; details: dose 4.0 µg/ml
# Cell membrane [2] = assay: Induction of cell membrane disruption in methicillin resistant Staphylococcus aureus ATCC 43300 at 4 ug/ml incubated for 1 hr by transmission electron microscopic analysis; assay type: subcellular; details: dose 4.0 µg/ml
# Cell membrane [3] = assay: Induction of cell membrane permeabilization in Staphylococcus aureus ATCC 25923 assessed as increase in nucleic acid leakage by measuring increase in absorbance at 0.5 to 2X MIC measured every 30 mins for 5 hrs by spectrophotometry; assay type: subcellular
# RAW264.7 = assay: Cytotoxicity against mouse RAW264.7 cells assessed as reduction in cell viability incubated for 48 hrs by MTT assay; assay type: cell-based; details: RAW264.7, 48 h
# Staphylococcus aureus [4] = assay: Antibacterial activity against methicillin resistant Staphylococcus aureus ATCC 43300 persisters assessed as eradication of colony formation at 24 to 40 ug/ml incubated for 6 hrs by colony counting method; assay type: functional, organism-based; details: dose 24-40 µg/ml
# Staphylococcus aureus [5] = assay: Resistance index, ratio of MIC for antibacterial activity against Staphylococcus aureus ATCC 25923 measured after 60 days of serial passage to MIC for antibacterial activity against Staphylococcus aureus ATCC25923 measured after 16 hrs; assay type: functional
# Staphylococcus aureus [6] = assay: Bacteriostatic activity against Staphylococcus aureus ATCC 25923 assessed as reduction in bacterial growth at 4 ug/ml incubated for 2 hrs by colony counting method; assay type: functional, organism-based; details: dose 4.0 µg/ml
# Staphylococcus aureus [7] = assay: Bactericidal activity against Staphylococcus aureus ATCC 25923 assessed as reduction in bacterial colony formation at 2X MIC incubated for 2 hrs by colony counting method; assay type: functional, organism-based
# Cell membrane [8] = assay: Induction of cell membrane disruption in Staphylococcus aureus ATCC 25923 at 4 ug/ml incubated for 1 hr by transmission electron microscopic analysis; assay type: subcellular; details: dose 4.0 µg/ml
# Cell membrane [9] = assay: Induction of cell membrane disruption in Staphylococcus aureus ATCC 25923 assessed as loose cell wall at 4 ug/ml incubated for 1 hr by transmission electron microscopic analysis; details: dose 4.0 µg/ml
# Cell membrane [10] = assay: Induction of cell membrane permeabilization in methicillin resistant Staphylococcus aureus ATCC 43300 assessed as increase in nucleic acid leakage by measuring increase in absorbance at 0.5 to 2X MIC measured every 30 mins for 5 hrs by spectrophotometry; assay type: subcellular
# Cell membrane [11] = assay: Induction of cell membrane depolarization in Staphylococcus aureus ATCC 25923 assessed as reduction in fluorescence intensity at 0.5 to 1 times MIC measured upto 90 mins by DiOC5 dye based flow cytometric analysis; assay type: subcellular; details: time min <=90
# Lipid bilayer = assay: Induction of pore formation in DOPC/DOPG large unilamellar vesicles assessed as calcein leakage at 0.5 to 2 times MIC measured for 30 mins by fluorescence based assay
# Staphylococcus aureus [12] = assay: Bacteriostatic activity against Staphylococcus aureus ATCC 25923 assessed as reduction in bacterial growth at 4 ug/ml incubated for 16 hrs by Kirby-Bauer test method; assay type: functional, organism-based; details: dose 4.0 µg/ml
# Staphylococcus aureus [13] = assay: Binding affinity to His-tagged recombinant Staphylococcus aureus PgsA expressed in Escherichia coli Rosetta DE3 at 5 uM incubated for 1 hr followed by UV irradiation for 20 mins by in-gel fluorescence scanning analysis; details: time 80.0 min
# Staphylococcus aureus [14] = assay: Inhibition of PG biosynthesis in Staphylococcus aureus assessed as fold change in PlsX gene expression at 4 ug/ml incubated for 1 hr by qRT-PCR analysis relative to control; assay type: functional; details: dose 4.0 µg/ml
# Staphylococcus aureus [15] = assay: Inhibition of PG biosynthesis in Staphylococcus aureus assessed as fold change in PlsY gene expression at 4 ug/ml incubated for 1 hr by qRT-PCR analysis relative to control; assay type: functional; details: dose 4.0 µg/ml
# Staphylococcus aureus [16] = assay: Inhibition of PG biosynthesis in Staphylococcus aureus assessed as fold change in PlsC gene expression at 4 ug/ml incubated for 1 hr by qRT-PCR analysis relative to control; assay type: functional; details: dose 4.0 µg/ml
# Staphylococcus aureus [17] = assay: Inhibition of PG biosynthesis in Staphylococcus aureus assessed as fold change in CdsA gene expression at 4 ug/ml incubated for 1 hr by qRT-PCR analysis relative to control; assay type: functional; details: dose 4.0 µg/ml
# Staphylococcus aureus [18] = assay: Inhibition of PG biosynthesis in Staphylococcus aureus assessed as fold change in LtaS gene expression at 4 ug/ml incubated for 1 hr by qRT-PCR analysis relative to control; assay type: functional; details: dose 4.0 µg/ml
# Staphylococcus aureus [19] = assay: Inhibition of PG biosynthesis in Staphylococcus aureus assessed as fold change in Cls gene expression at 4 ug/ml incubated for 1 hr by qRT-PCR analysis relative to control; assay type: functional; details: dose 4.0 µg/ml
# Staphylococcus aureus [20] = assay: Inhibition of PG biosynthesis in Staphylococcus aureus assessed as fold change in MprF gene expression at 4 ug/ml incubated for 1 hr by qRT-PCR analysis relative to control; assay type: functional; details: dose 4.0 µg/ml
# Staphylococcus aureus [21] = assay: Inhibition of PG biosynthesis in Staphylococcus aureus assessed as fold change in YpfP gene expression at 4 ug/ml incubated for 1 hr by qRT-PCR analysis relative to control; assay type: functional; details: dose 4.0 µg/ml
# Staphylococcus aureus [22] = assay: Inhibition of PG biosynthesis in Staphylococcus aureus assessed as fold change in DgkB gene expression at 4 ug/ml incubated for 1 hr by qRT-PCR analysis relative to control; assay type: functional; details: dose 4.0 µg/ml
# Staphylococcus aureus [23] = assay: Antibacterial activity against methicillin resistant Staphylococcus aureus ATCC 43300 persisters assessed as reduction in number of living bacteria at 24 to 40 ug/ml measured over 24 hrs by colony counting method; assay type: functional, organism-based; details: dose 24-40 µg/ml
# Staphylococcus aureus [24] = assay: Antibacterial activity against Staphylococcus aureus ATCC 25923 assessed as reduction in bacterial growth incubated for 16 hrs by broth microdilution method; assay type: functional
# Staphylococcus aureus [25] = assay: Antibacterial activity against Staphylococcus aureus ATCC 25923 assessed as reduction in bacterial growth measured after 60 days of serial passage; assay type: functional; details: ATCC 25923, 1440 h, time 60 day
# Staphylococcus aureus [26] = assay: Bactericidal activity against in Staphylococcus aureus ATCC 25923 assessed as induction of bacterial death by measuring reduction in fluorescence intensity at 4 times MIC measured upto 90 mins by DiOC5 dye based flow cytometric analysis; assay type: functional, organism-based; details: time min <=90
structure (smiles),measurement,setting,value
COc1cc(/C=C/c2ccccc2F)c(C(=O)O)c(O)c1CC=C(C)C,Activity,Cell membrane [1],Active
same,Activity,Cell membrane [2],Active
same,Activity,Cell membrane [3],Active
same,IC50,RAW264.7,62.6 µM
same,Activity,Staphylococcus aureus [4],Active
same,Ratio,Staphylococcus aureus [5],3
same,Activity,Staphylococcus aureus [6],Active
same,Activity,Staphylococcus aureus [7],Active
same,Activity,Cell membrane [8],Active
same,Activity,Cell membrane [9],Active
same,Activity,Cell membrane [10],Active
same,Activity,Cell membrane [11],Active
same,Activity,Lipid bilayer,inactive
same,Activity,Staphylococcus aureus [12],Active
same,Activity,Staphylococcus aureus [13],Active
same,fold change (FC),Staphylococcus aureus [14],0.577
same,fold change (FC),Staphylococcus aureus [15],1.58
same,fold change (FC),Staphylococcus aureus [16],1.99
same,fold change (FC),Staphylococcus aureus [17],1.18
same,fold change (FC),Staphylococcus aureus [18],0.663
same,fold change (FC),Staphylococcus aureus [19],0.558
same,fold change (FC),Staphylococcus aureus [20],0.759
same,fold change (FC),Staphylococcus aureus [21],0.446
same,fold change (FC),Staphylococcus aureus [22],1.25
same,Activity,Staphylococcus aureus [23],Active
same,MIC,Staphylococcus aureus [24],4 µg/mL
same,MIC,Staphylococcus aureus [25],12 µg/mL
same,Activity,Staphylococcus aureus [26],Active
